Data: ChEMBL document CHEMBL1857833, “Screening and optimization of specific chemical series against human African Trypanosomiasis (HAT)”
In brackets after ≈: the same amount, converted by molar mass. Several values for one entry are separate records, joined by “and”; a condition that tells them apart may be missing. Equal entries are not always repeated.

What was measured:
[1] = DNDI: Cytotoxicity against L929 mouse fibroblasts, CYTO-SP, 24 hour; format: toxicity, cell-based; settings: mouse, L929 mouse fibroblasts
[2] = (§1) DNDI: Cytotoxicity against L929 mouse fibroblasts, 72 hour.; format: toxicity, cell-based; settings: mouse, L929 mouse fibroblasts
Trypanosoma brucei [3] = experiment: DNDI: Inhibition of Human African Trypanosomiasis, Cross 22, in vitro; format: functional, organism-based
Trypanosoma brucei [4] = experiment: DNDI: Inhibition of Human African Trypanosomiasis, SBRI 427, in vitro; format: functional, organism-based
[5] = mouse, microsomes, 1 µM
Description: (§3) DNDI: in vitro intrinsic clearance in mouse liver microsomes at a concentration of 1uM

[6] = mouse, microsomes, 1 µM; remark: listed apart in the source
Description: (§4) DNDI: half life in mouse liver microsomes at a concentration of 1uM

in vitro [7] = settings: mouse, liver microsomes
Description: as §3

in vitro [8] = settings: mouse, liver microsomes, t (1 / 2)
Description: as §4

Trypanosoma brucei [9] = experiment: (§2) DNDI: Mean survival time in days (MSD) of mice after intraperitoneal injection of Human African Trypanosomiasis (HAT), EATRO 110, in vivo at 20 mg/kg/day for 4 days.; format: functional, Mus musculus
[10] = DNDI: Lipophilicity measured in Chromatographic hydrophobicity index (CHI) assay, pH 7.4; format: physicochemical; settings: buffer
[11] = DNDI: Solubility in phosphate buffered saline at pH7.4 measured by nephelometry at room temperature (NEPH-RT); format: physicochemical; settings: pH 7.4
in vitro [12] = settings: human, liver microsomes, t (1 / 2)
Description: DNDI: half life in human liver microsomes at a concentration of 1uM

in vitro [13] = settings: human, liver microsomes, CLint in vitro
Description: DNDI: in vitro intrinsic clearance in human liver microsomes at a concentration of 1uM

L929 = experiment: as §1; format: toxicity, cell-based; settings: l929
MDR1 (ABCB1) [14] = target: T1, MDR1 (ABCB1) (Homo sapiens, UniProt P08183); experiment: DNDI: % of compound recovered from apical to basolateral permeability assay in MDCK cells transfected with human MDR1 after 60 mins at a concentration of 3uM; format: ADME, cell-based, Canis lupus familiaris; settings: dog
T1 sequence (P08183 whole entry): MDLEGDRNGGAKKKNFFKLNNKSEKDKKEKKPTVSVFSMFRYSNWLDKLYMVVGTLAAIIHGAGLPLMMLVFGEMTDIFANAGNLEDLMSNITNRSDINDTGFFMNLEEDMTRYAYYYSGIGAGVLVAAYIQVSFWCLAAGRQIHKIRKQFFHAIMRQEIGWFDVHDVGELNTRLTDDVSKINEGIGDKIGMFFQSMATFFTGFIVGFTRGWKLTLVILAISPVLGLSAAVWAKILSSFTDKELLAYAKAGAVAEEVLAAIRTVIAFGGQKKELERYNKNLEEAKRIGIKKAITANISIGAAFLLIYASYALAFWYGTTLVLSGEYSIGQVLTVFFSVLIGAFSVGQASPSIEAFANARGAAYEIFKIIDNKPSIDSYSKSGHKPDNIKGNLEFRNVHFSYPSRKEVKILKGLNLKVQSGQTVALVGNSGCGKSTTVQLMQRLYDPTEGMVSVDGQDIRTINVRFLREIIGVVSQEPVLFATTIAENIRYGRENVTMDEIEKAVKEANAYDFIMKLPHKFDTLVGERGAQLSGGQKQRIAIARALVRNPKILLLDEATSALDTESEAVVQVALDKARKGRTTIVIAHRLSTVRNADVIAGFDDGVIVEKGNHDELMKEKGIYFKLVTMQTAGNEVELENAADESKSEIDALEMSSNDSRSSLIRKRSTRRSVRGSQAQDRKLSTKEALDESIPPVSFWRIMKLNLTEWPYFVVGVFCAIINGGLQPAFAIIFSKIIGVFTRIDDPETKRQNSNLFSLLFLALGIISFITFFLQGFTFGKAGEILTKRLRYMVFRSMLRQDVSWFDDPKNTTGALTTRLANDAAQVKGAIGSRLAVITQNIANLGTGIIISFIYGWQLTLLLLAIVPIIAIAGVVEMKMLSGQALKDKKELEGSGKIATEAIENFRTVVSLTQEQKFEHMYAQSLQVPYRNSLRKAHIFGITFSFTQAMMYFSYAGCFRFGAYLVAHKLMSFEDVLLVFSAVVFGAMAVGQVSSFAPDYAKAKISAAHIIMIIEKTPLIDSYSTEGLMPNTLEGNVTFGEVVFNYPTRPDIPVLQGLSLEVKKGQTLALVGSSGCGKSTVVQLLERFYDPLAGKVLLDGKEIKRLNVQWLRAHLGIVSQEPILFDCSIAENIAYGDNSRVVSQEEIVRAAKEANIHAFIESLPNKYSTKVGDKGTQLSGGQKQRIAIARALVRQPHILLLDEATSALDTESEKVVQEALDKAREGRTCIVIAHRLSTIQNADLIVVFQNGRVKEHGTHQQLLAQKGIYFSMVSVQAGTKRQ

MDR1 (ABCB1) [15] = target: T1, MDR1 (ABCB1); experiment: DNDI: Apparent permeability from apical to basolateral side of the MDCK cell transfected with human MDR1after 60 mins at a concentration of 3uM; format: ADME, cell-based, Canis lupus familiaris; settings: dog, MDCK-MDR1
MDR1 (ABCB1) [16] = target: T1, MDR1 (ABCB1); experiment: DNDI: % of compound recovered from apical to basolateral permeability assay in MDCK cells transfected with human MDR1 after 60 mins at a concentration of 3uM in the presence of GF120918; format: ADME, cell-based, Canis lupus familiaris; settings: dog, MDCK-MDR1, with GF120918 (concentration not stated)
MDR1 (ABCB1) [17] = target: T1, MDR1 (ABCB1); experiment: DNDI: Efflux ratio for permeability from basolateral to apical side to apical to basolateral side of MDCK cells transfected with human MDR1; format: ADME, cell-based, Canis lupus familiaris; settings: dog, MDCK-MDR1; read-out: Calculated Ratio
[18] = DNDI: half-life in mouse S9 microsomes at a concentration of 1uM; format: ADME, subcellular, Liver, S9 fraction
Trypanosoma cruzi = experiment: DNDI: Inhibition of Chagas Disease parasite Trypanosoma cruzi (Tulahuen LacZ, Clone C4), in vitro.; format: functional, organism-based
[19] = DNDI: Cytotoxicity against L-6 rat myoblasts from skeletal muscle cells; format: toxicity, cell-based, L6; settings: L-6 rat skeletal muscle myoblasts
[20] = tested on: Trypanosoma brucei rhodesiense; experiment: DNDI: Inhibition of Human African Trypanosomiasis (HAT), STIB 900, in vitro; format: functional, organism-based
Trypanosoma brucei [21] = experiment: DNDI: Mean survival time in days (MSD) of mice after intraperitoneal injection of Human African Trypanosomiasis (HAT), EATRO 110, in vivo at 5 mg/kg/day for 4 days.; format: functional, Mus musculus
Trypanosoma brucei [22] = experiment: as §2; format: functional, Mus musculus; remark: listed apart in the source
Leishmania donovani = experiment: DNDI: Inhibition of formation of Leishmania donovani (strain MHOM/ET/67/L82) axenic amastigotes, in vitro.; format: functional, organism-based
Plasmodium falciparum = experiment: DNDI: Inhibition of the malaria parasite Plasmodium falciparum, in vitro; format: functional, organism-based; settings: K1
[23] = Trypanosoma brucei, SBRI 427, read-out: IC50

Structure (SMILES)	IC50 at 24 h [1] [µg/mL]	IC50 at 72 h [2] [µg/mL]	IC50 (Trypanosoma brucei [3]) [µg/mL]	IC50 (Trypanosoma brucei [4])	CLint in vitro [5]	t (1 / 2) [6]	microsomal CLint at 1 µM (in vitro [7]) [µL/min/mg]	half-life at 1 µM (in vitro [8]) [h]	IC50 (Trypanosoma brucei [4]; [23]) [µg/mL]	chromatographic logD [10]	solubility kinetic [11] [µM]	IC50 (L929) [µg/mL]	recovery at 1 h, 3 µM (MDR1 (ABCB1) [14]) [%]	Papp A→B at 1 h, 3 µM (MDR1 (ABCB1) [15]) [×10⁻⁶ cm/s]	recovery at 1 h, 3 µM (MDR1 (ABCB1) [16]) [%]	efflux ratio (MDR1 (ABCB1) [17])	other results
CCCCOc1ccc(-c2nc(CNC3CC(C)CC(C)(C)C3)co2)cc1 (stereo not drawn)	20.9 (≈ 56.4 µM)	< 3.13	0.61 (≈ 1.65 µM)	0.39 µg/mL and 0.47 µg/mL and 1.12 µg/mL	8 µL/min/mg	113 min	6	2.33									
O/N=C(\Nc1ccccc1)c1ccccc1-c1ccccc1	36.9 (≈ 128 µM)				352 µL/min/mg	2 min	338	0.05	4.39 (≈ 15.2 µM)	4.32	25 (≈ 7.21 µg/mL)						MSD (Trypanosoma brucei [9]): 4 days; half-life at 1 µM (in vitro [12]): 1.87 h; microsomal CLint at 1 µM (in vitro [13]): 8 µL/min/mg
CC1(C)[C@H]2CC[C@@H](CNCc3coc(-c4ccc(-c5ccccc5)cc4)n3)[C@@H]1C2	17.6 (≈ 45.6 µM)	< 3.13	0.64 (≈ 1.66 µM)	0.28 µg/mL and 0.72 µg/mL and 0.58 µg/mL	25 µL/min/mg and 11 µL/min/mg	80 min and 34 min											
CCCCc1ccc(-c2nc(CNCC(O)CN)co2)cc1 (stereo not drawn)		2.91 (≈ 9.59 µM)							0.6 (≈ 1.98 µM)			3.31 (≈ 10.9 µM)					
Cc1cc(NCCCn2ccnc2)n2nc(-c3cccc(F)c3)cc2n1		> 10							> 5	3.67	25 (≈ 8.76 µg/mL)		100	30.4	109	0.43	
c1ccc(-c2ccc(-c3nc(CNC4CCCCCC4)co3)cc2)cc1	25.3 (≈ 73.1 µM)	< 3.13	0.54 (≈ 1.56 µM)	0.27 µg/mL and 0.56 µg/mL and 0.41 µg/mL	4 µL/min/mg and 10 µL/min/mg	88 min and 237 min											
Fc1cccc(-c2cc3nc(-c4ccccc4)cc(NCCCN4CCOCC4)n3n2)c1		> 10							5 (≈ 11.6 µM)	> 5.2	3 (≈ 1.29 µg/mL)		59	3.26	51	0.05	half-life at 1 µM [18]: 4.27 h
CCCCc1ccc(-c2nc(CNC3CC(C)CC(C)(C)C3)co2)cc1 (stereo not drawn)	> 50	0.64 (≈ 1.81 µM)	0.34 (≈ 0.959 µM)		3 µL/min/mg	251 min and 224 min	4	3.2		5.99	6 (≈ 2.13 µg/mL)	1.26 (≈ 3.55 µM)					IC50 (Trypanosoma cruzi): 2 µg/mL (≈ 5.64 µM); IC50 [19]: 1.73 µg/mL (≈ 4.88 µM); IC50 [20]: 0.348 µg/mL (≈ 0.982 µM); MSD (Trypanosoma brucei [9]): 2.5 days; MSD (Trypanosoma brucei [21]): 4 days; MSD (Trypanosoma brucei [22]): 4 days; IC50 (Leishmania donovani): 5.26 µg/mL (≈ 14.8 µM); IC50 (Plasmodium falciparum): 0.521 µg/mL (≈ 1.47 µM); half-life at 1 µM (in vitro [12]): 0.983 h; microsomal CLint at 1 µM (in vitro [13]): 14 µL/min/mg
Cc1cc(NCCCN2CCOCC2)n2nc(-c3cccc(F)c3)cc2n1		> 10							> 5	4.44	25 (≈ 9.24 µg/mL)		91	36.1	85	0.12	half-life at 1 µM [18]: 0.583 h
CCCCc1ccc(-c2nc(CNCC(C)(C)CN)co2)cc1		1.81 (≈ 5.74 µM)							0.39 (≈ 1.24 µM)			2.96 (≈ 9.38 µM)					
